Reference: US10597388B2, “Pyridazinone herbicides” (FMC CORPORATION, priority 2014, dated 2020)

Assays:
Experiment in all cases: Test C greenhouse herbicide test, pre- and postemergence
Type in all cases: in vivo
[1] = tested on: barnyardgrass (Echinochloa crus-galli)
Summary of the method: (§1)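 Seeds sown in loam–sand blend treated preemergence; plants in peat-based medium sprayed postemergence at 2–18 cm (1- to 4-leaf stage); chemicals in non-phytotoxic solvent with surfactant. Greenhouse 13–15 d, then visual rating versus controls on 0–100 scale (0 no effect, 100 complete control).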

[2] = tested on: blackgrass (Alopecurus myosuroides)
Summary of the method: as §1

corn (Zea mays) = tested on: corn (Zea mays)
Summary of the method: as §1

[3] = tested on: crabgrass, large (large crabgrass, Digitaria sanguinalis)
Summary of the method: as §1

[4] = tested on: foxtail, giant (giant foxtail, Setaria faberii)
Summary of the method: as §1

[5] = tested on: galium (catchweed bedstraw, Galium aparine)
Summary of the method: as §1

[6] = tested on: lambsquarters (Chenopodium album)
Summary of the method: as §1

[7] = tested on: morningglory (Ipomoea coccinea)
Summary of the method: as §1

[8] = tested on: nutsedge, yellow (yellow nutsedge, Cyperus esculentus)
Summary of the method: as §1

[9] = tested on: oilseed rape (Brassica napus)
Summary of the method: as §1

[10] = tested on: ragweed (common ragweed, Ambrosia elatior)
Summary of the method: as §1

[11] = tested on: ryegrass, Italian (Italian ryegrass, Lolium multiflorum)
Summary of the method: as §1

soybean (Glycine max) = tested on: soybean (Glycine max)
Summary of the method: as §1

[12] = tested on: velvetleaf (Abutilon theophrasti)
Summary of the method: as §1

[13] = tested on: waterhemp (common waterhemp, Amaranthus rudis)
Summary of the method: as §1

[14] = Postemergence, 31 g ai/ha, scale 0 to 100 (0 no effect, 100 complete control)
[15] = Postemergence, 125 g ai/ha, scale 0 to 100, 0 is no effect, 100 is complete control
[16] = Postemergence, 250 g ai/ha, scale 0 to 100, 0 no effect, 100 complete control, 13 to 15 d
[17] = Preemergence, 31 g ai/ha, scale 0 to 100, 0 is no effect, 100 is complete control
[18] = Preemergence, 62 g ai/ha, scale 0 to 100, 0 is no effect, 100 is complete control
[19] = Preemergence, 125 g ai/ha, scale 0 to 100, 0 is no effect, 100 is complete control
[20] = Preemergence, 250 g ai/ha, scale 0 to 100, 0 no effect, 100 complete control
[21] = postemergence, 62 g ai/ha, scale 0 to 100, 0 no effect, 100 complete control

CCCC(=O)Oc1c(C)nn(C)c(=O)c1-c1c(CC)sc2ccc(C)cc12 [Compound 107]
60: Plant response rating, Foxtail, Giant [4, 17] | Plant response rating, Ryegrass, Italian [11, 15] | Plant response rating, Velvetleaf [12, 18]
75: Plant response rating, Crabgrass, Large [3, 19] | Plant response rating, Foxtail, Giant [4, 16] | Plant response rating, Nutsedge, Yellow [8, 15] | Plant response rating, Ragweed [10, 17] | Plant response rating, Soybean (soybean (Glycine max); [17]) | Plant response rating, Velvetleaf [12, 14] | Plant response rating, Waterhemp [13, 14] | Plant response rating, Waterhemp [13, 17] | Plant response rating, Waterhemp [13, 18]
98: Barnyardgrass plant response rating [1, 20] | Foxtail, Giant plant response rating [4, 20] | Plant response rating, Galium [5, 16] | Plant response rating, Lambsquarters [6, 16] | Plant response rating, Morningglory [7, 15] | Morningglory plant response rating [7, 20] | Plant response rating, Ragweed [10, 15] | Plant response rating, Ragweed [10, 16] | Waterhemp plant response rating [13, 20]
10: Plant response rating, Blackgrass [2, 19] | Blackgrass plant response rating [2, 20] | Plant response rating, Corn (corn (Zea mays); [19]) | Corn plant response rating (corn (Zea mays); [21]) | Plant response rating, Soybean (soybean (Glycine max); [16])
25: Plant response rating, Oilseed Rape [9, 14]
70: Plant response rating, Foxtail, Giant [4, 15] | Plant response rating, Nutsedge, Yellow [8, 19]
95: Plant response rating, Galium [5, 14] | Galium plant response rating [5, 20] | Plant response rating, Lambsquarters [6, 19] | Lambsquarters plant response rating [6, 20] | Plant response rating, Morningglory [7, 14] | Plant response rating, Morningglory [7, 19] | Plant response rating, Velvetleaf [12, 15] | Plant response rating, Waterhemp [13, 15] | Plant response rating, Waterhemp [13, 19]
0: Plant response rating, Blackgrass [2, 14] | Plant response rating, Blackgrass [2, 17] | Plant response rating, Corn (corn (Zea mays); [17]) | Plant response rating, Corn (corn (Zea mays); [18]) | Plant response rating, Oilseed Rape [9, 17] | Plant response rating, Oilseed Rape [9, 18] | Plant response rating, Soybean (soybean (Glycine max); [14]) | Plant response rating, Soybean (soybean (Glycine max); [18]) | Plant response rating, Soybean (soybean (Glycine max); [19])
15: Plant response rating, Barnyardgrass [1, 17] | Plant response rating, Corn (corn (Zea mays); [16]) | Corn plant response rating (corn (Zea mays); [20]) | Plant response rating, Crabgrass, Large [3, 14] | Plant response rating, Foxtail, Giant [4, 14] | Plant response rating, Ryegrass, Italian [11, 17] | Soybean plant response rating (soybean (Glycine max); [20])
50: Barnyardgrass plant response rating [1, 21] | Plant response rating, Nutsedge, Yellow [8, 18]
90: Plant response rating, Barnyardgrass [1, 16] | Plant response rating, Galium [5, 17] | Plant response rating, Galium [5, 18] | Plant response rating, Galium [5, 19] | Plant response rating, Lambsquarters [6, 15] | Plant response rating, Lambsquarters [6, 17] | Nutsedge, Yellow plant response rating [8, 20] | Plant response rating, Ragweed [10, 18] | Plant response rating, Ryegrass, Italian [11, 16] | Velvetleaf plant response rating [12, 20] | Plant response rating, Waterhemp [13, 16]
20: Plant response rating, Corn (corn (Zea mays); [15]) | Crabgrass, Large plant response rating [3, 21] | Plant response rating, Oilseed Rape [9, 19] | Plant response rating, Soybean (soybean (Glycine max); [15])
65: Plant response rating, Crabgrass, Large [3, 16]
5: Plant response rating, Blackgrass [2, 15] | Plant response rating, Blackgrass [2, 18] | Blackgrass plant response rating [2, 21] | Plant response rating, Corn (corn (Zea mays); [14])
40: Plant response rating, Barnyardgrass [1, 15] | Plant response rating, Ryegrass, Italian [11, 14]
35: Plant response rating, Barnyardgrass [1, 14] | Plant response rating, Crabgrass, Large [3, 15] | Plant response rating, Ryegrass, Italian [11, 18] | Plant response rating, Ryegrass, Italian [11, 19]
80: Plant response rating, Barnyardgrass [1, 19] | Plant response rating, Foxtail, Giant [4, 18] | Plant response rating, Morningglory [7, 17] | Plant response rating, Nutsedge, Yellow [8, 14] | Plant response rating, Oilseed Rape [9, 15] | Oilseed Rape plant response rating [9, 20]
45: Plant response rating, Barnyardgrass [1, 18] | Plant response rating, Oilseed Rape [9, 16]
85: Crabgrass, Large plant response rating [3, 20] | Plant response rating, Foxtail, Giant [4, 19] | Plant response rating, Lambsquarters [6, 14] | Plant response rating, Morningglory [7, 18] | Plant response rating, Nutsedge, Yellow [8, 16] | Plant response rating, Ragweed [10, 14] | Plant response rating, Ragweed [10, 19] | Plant response rating, Velvetleaf [12, 19]
100: Plant response rating, Galium [5, 15] | Plant response rating, Lambsquarters [6, 18] | Plant response rating, Morningglory [7, 16] | Ragweed plant response rating [10, 20] | Plant response rating, Velvetleaf [12, 16]
30: Plant response rating, Blackgrass [2, 16] | Plant response rating, Crabgrass, Large [3, 17] | Plant response rating, Crabgrass, Large [3, 18] | Plant response rating, Nutsedge, Yellow [8, 17] | Ryegrass, Italian plant response rating [11, 20] | Plant response rating, Velvetleaf [12, 17]
